{"source": "paper PMC9475448", "about": "“What a difference a methylene makes: replacing Glu with Asp or Aad in the Lys-urea-Glu pharmacophore of PSMA-targeting radioligands to reduce kidney and salivary gland uptake” (Theranostics, 2022)", "key": {"PSMA": {"molecular_target": "T1, PSMA (Homo sapiens, UniProt Q04609)", "T1 construct": "endogenous in cells; host or cells: LNCaP prostate cancer cells", "T1 sequence (Q04609 whole entry)": "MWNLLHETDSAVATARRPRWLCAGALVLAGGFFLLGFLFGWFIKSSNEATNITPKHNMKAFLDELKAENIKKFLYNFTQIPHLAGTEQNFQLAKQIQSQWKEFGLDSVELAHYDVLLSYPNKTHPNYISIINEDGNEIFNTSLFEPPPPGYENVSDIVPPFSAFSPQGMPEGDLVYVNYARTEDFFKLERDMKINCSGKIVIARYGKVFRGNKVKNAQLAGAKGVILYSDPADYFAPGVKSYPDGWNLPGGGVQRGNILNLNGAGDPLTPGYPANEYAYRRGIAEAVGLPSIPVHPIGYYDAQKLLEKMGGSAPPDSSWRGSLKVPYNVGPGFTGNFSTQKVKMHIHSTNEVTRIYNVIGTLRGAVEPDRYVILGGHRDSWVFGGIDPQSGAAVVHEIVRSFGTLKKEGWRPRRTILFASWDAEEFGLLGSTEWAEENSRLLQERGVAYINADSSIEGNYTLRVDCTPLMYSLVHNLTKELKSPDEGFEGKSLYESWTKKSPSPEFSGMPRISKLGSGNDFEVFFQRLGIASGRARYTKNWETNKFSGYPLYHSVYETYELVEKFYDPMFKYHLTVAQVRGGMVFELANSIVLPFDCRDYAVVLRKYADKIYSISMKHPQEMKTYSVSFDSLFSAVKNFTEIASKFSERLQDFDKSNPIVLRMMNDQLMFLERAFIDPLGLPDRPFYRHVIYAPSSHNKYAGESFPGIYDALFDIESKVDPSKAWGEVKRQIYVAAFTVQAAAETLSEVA", "assay": "In vitro competition binding assay using LNCaP cells and [18F]DCFPyL as radioligand", "settings": "displacement of [18F]DCFPyL from LNCaP cells, n = 3; read-out: PSMA binding affinity (Ki)", "method": "The binding assays were conducted following previously published procedures using LNCaP cells and [^18F]DCFPyL as the radioligand [17]-[19]. Briefly, LNCaP cells (400,000/well) were plated onto a 24-well poly-D-lysine coated plate for 48 h. Growth media was removed and replaced with HEPES buffered saline (50 mM HEPES, pH 7.5, 0.9% sodium chloride) and the cells were incubated for 1 h at 37 °C. [^18F]DCFPyL (0.1 nM) was added to each well (in triplicate) containing various concentrations (0.5 mM - 0.05 nM) of tested nonradioactive Ga-complexed compounds. Non-specific binding was determined in the presence of 10 µM non-radiolabeled DCFPyL. The assay mixtures were further incubated for 1 h at 37 °C with gentle agitation. Then, the buffer and radioligand were removed, and cells were washed twice with cold HEPES buffered saline. To harvest the cells, 400 µL of 0.25 % trypsin solution was added to each well. Radioactivity was measured on a PerkinElmer (Waltham, MA) Wizard2 2480 automatic gamma counter. Data analyses of Ki were performed using the nonlinear regression algorithm of GraphPad (San Diego, CA) Prism 7 software."}, "LNCaP tumor-bearing mice": {"test_system": "LNCaP tumor-bearing mice", "assay": "Ex vivo biodistribution of 68Ga-labeled ligands in LNCaP tumor-bearing NSG mice", "settings": "1 h post-injection"}}, "data": [{"smiles": "O=C([O-])CN1CCN(CC(=O)[O-])CCN(CC(=O)NCC2CCC(C(=O)NC(Cc3c4ccccc4cc4ccccc34)C(=O)NCCCCC(NC(=O)NC(CCCCC(=O)O)C(=O)O)C(=O)O)CC2)CCN(CC(=O)[O-])CC1.[Ga+3]", "note": "(single isomer, unassigned) [Ga-HTK03189A]", "values": [{"measurement": "Ki", "setting": "PSMA", "result": "550 ± 35.7", "unit": "nM"}]}, {"smiles": "O=C([O-])CN1CCN(CC(=O)[O-])CCN(CC(=O)NCC2CCC(C(=O)NC(Cc3c4ccccc4cc4ccccc34)C(=O)NCCCCC(NC(=O)NC(CCCCC(=O)O)C(=O)O)C(=O)O)CC2)CCN(CC(=O)[O-])CC1.[68Ga+3]", "note": "(single isomer, unassigned) [[^68Ga]Ga-HTK03189A]", "values": [{"measurement": "Higher tumor uptake than [68Ga]Ga-HTK03189B", "setting": "LNCaP tumor-bearing mice", "result": "~ 2 fold"}, {"measurement": "Adrenal glands uptake", "setting": "LNCaP tumor-bearing mice; listed as [68Ga]Ga-HTK03189A", "result": "0.35 ± 0.06", "unit": "%IA/g"}, {"measurement": "Blood uptake", "setting": "LNCaP tumor-bearing mice; listed as [68Ga]Ga-HTK03189A", "result": "0.89 ± 0.22", "unit": "%IA/g"}, {"measurement": "Blood:Salivary gland uptake ratio", "setting": "LNCaP tumor-bearing mice; listed as [68Ga]Ga-HTK03189A", "result": "4.39 ± 0.44"}, {"measurement": "Bone uptake", "setting": "LNCaP tumor-bearing mice; listed as [68Ga]Ga-HTK03189A", "result": "0.12 ± 0.03", "unit": "%IA/g"}, {"measurement": "Brain uptake", "setting": "LNCaP tumor-bearing mice; listed as [68Ga]Ga-HTK03189A", "result": "0.02 ± 0.00", "unit": "%IA/g"}, {"measurement": "Fat uptake", "setting": "LNCaP tumor-bearing mice; listed as [68Ga]Ga-HTK03189A", "result": "0.18 ± 0.11", "unit": "%IA/g"}, {"measurement": "Heart uptake", "setting": "LNCaP tumor-bearing mice; listed as [68Ga]Ga-HTK03189A", "result": "0.24 ± 0.06", "unit": "%IA/g"}, {"measurement": "Intestines uptake", "setting": "LNCaP tumor-bearing mice; listed as [68Ga]Ga-HTK03189A", "result": "0.31 ± 0.18", "unit": "%IA/g"}, {"measurement": "Kidneys uptake", "setting": "LNCaP tumor-bearing mice; listed as [68Ga]Ga-HTK03189A", "result": "2.65 ± 0.69", "unit": "%IA/g"}, {"measurement": "Lacrimal glands uptake", "setting": "LNCaP tumor-bearing mice; listed as [68Ga]Ga-HTK03189A", "result": "0.18 ± 0.18", "unit": "%IA/g"}, {"measurement": "Liver uptake", "setting": "LNCaP tumor-bearing mice; listed as [68Ga]Ga-HTK03189A", "result": "0.34 ± 0.15", "unit": "%IA/g"}, {"measurement": "Lungs uptake", "setting": "LNCaP tumor-bearing mice; listed as [68Ga]Ga-HTK03189A", "result": "0.68 ± 0.12", "unit": "%IA/g"}, {"measurement": "Muscle uptake", "setting": "LNCaP tumor-bearing mice; listed as [68Ga]Ga-HTK03189A", "result": "0.14 ± 0.04", "unit": "%IA/g"}, {"measurement": "Pancreas uptake", "setting": "LNCaP tumor-bearing mice; listed as [68Ga]Ga-HTK03189A", "result": "0.15 ± 0.04", "unit": "%IA/g"}, {"measurement": "Salivary glands uptake", "setting": "LNCaP tumor-bearing mice; listed as [68Ga]Ga-HTK03189A", "result": "0.20 ± 0.04", "unit": "%IA/g"}, {"measurement": "Spleen uptake", "setting": "LNCaP tumor-bearing mice; listed as [68Ga]Ga-HTK03189A", "result": "0.21 ± 0.10", "unit": "%IA/g"}, {"measurement": "Stomach uptake", "setting": "LNCaP tumor-bearing mice; listed as [68Ga]Ga-HTK03189A", "result": "0.11 ± 0.06", "unit": "%IA/g"}, {"measurement": "Testes uptake", "setting": "LNCaP tumor-bearing mice; listed as [68Ga]Ga-HTK03189A", "result": "0.23 ± 0.11", "unit": "%IA/g"}, {"measurement": "Thyroid uptake", "setting": "LNCaP tumor-bearing mice; listed as [68Ga]Ga-HTK03189A", "result": "0.25 ± 0.05", "unit": "%IA/g"}, {"measurement": "Tumor uptake", "setting": "LNCaP tumor-bearing mice; listed as [68Ga]Ga-HTK03189A", "result": "2.10 ± 0.28", "unit": "%IA/g"}, {"measurement": "Tumor:Blood uptake ratio", "setting": "LNCaP tumor-bearing mice; listed as [68Ga]Ga-HTK03189A", "result": "2.41 ± 0.29"}, {"measurement": "Tumor:Kidney uptake ratio", "setting": "LNCaP tumor-bearing mice; listed as [68Ga]Ga-HTK03189A", "result": "0.83 ± 0.21"}, {"measurement": "Tumor:Muscle uptake ratio", "setting": "LNCaP tumor-bearing mice; listed as [68Ga]Ga-HTK03189A", "result": "16.5 ± 4.08"}, {"measurement": "Tumor:Salivary gland uptake ratio", "setting": "LNCaP tumor-bearing mice; listed as [68Ga]Ga-HTK03189A", "result": "10.5 ± 1.07"}, {"measurement": "Tumor uptake", "setting": "LNCaP tumor-bearing mice; listed as [^68Ga]Ga-HTK0189A", "result": "2.10±0.28", "unit": "%IA/g"}]}, {"smiles": "O=C([O-])CN1CCN(CC(=O)[O-])CCN(CC(=O)NCC2CCC(C(=O)NC(Cc3c4ccccc4cc4ccccc34)C(=O)NCCCCC(NC(=O)NC(CCCCC(=O)O)C(=O)O)C(=O)O)CC2)CCN(CC(=O)[O-])CC1.[68Ga+3]", "note": "(single isomer, unassigned) [[^68Ga]Ga-HTK03189B]", "values": [{"measurement": "Tumor uptake", "setting": "LNCaP tumor-bearing mice", "result": "0.67±0.15", "unit": "%IA/g"}, {"measurement": "Adrenal glands uptake", "setting": "LNCaP tumor-bearing mice; listed as [68Ga]Ga-HTK03189B", "result": "0.37 ± 0.15", "unit": "%IA/g"}, {"measurement": "Blood uptake", "setting": "LNCaP tumor-bearing mice; listed as [68Ga]Ga-HTK03189B", "result": "1.06 ± 0.25", "unit": "%IA/g"}, {"measurement": "Blood:Salivary gland uptake ratio", "setting": "LNCaP tumor-bearing mice; listed as [68Ga]Ga-HTK03189B", "result": "4.86 ± 1.16"}, {"measurement": "Bone uptake", "setting": "LNCaP tumor-bearing mice; listed as [68Ga]Ga-HTK03189B", "result": "0.10 ± 0.02", "unit": "%IA/g"}, {"measurement": "Brain uptake", "setting": "LNCaP tumor-bearing mice; listed as [68Ga]Ga-HTK03189B", "result": "0.03 ± 0.00", "unit": "%IA/g"}, {"measurement": "Fat uptake", "setting": "LNCaP tumor-bearing mice; listed as [68Ga]Ga-HTK03189B", "result": "0.17 ± 0.10", "unit": "%IA/g"}, {"measurement": "Heart uptake", "setting": "LNCaP tumor-bearing mice; listed as [68Ga]Ga-HTK03189B", "result": "0.30 ± 0.06", "unit": "%IA/g"}, {"measurement": "Intestines uptake", "setting": "LNCaP tumor-bearing mice; listed as [68Ga]Ga-HTK03189B", "result": "0.28 ± 0.07", "unit": "%IA/g"}, {"measurement": "Kidneys uptake", "setting": "LNCaP tumor-bearing mice; listed as [68Ga]Ga-HTK03189B", "result": "2.13 ± 0.45", "unit": "%IA/g"}, {"measurement": "Lacrimal glands uptake", "setting": "LNCaP tumor-bearing mice; listed as [68Ga]Ga-HTK03189B", "result": "0.13 ± 0.04", "unit": "%IA/g"}, {"measurement": "Liver uptake", "setting": "LNCaP tumor-bearing mice; listed as [68Ga]Ga-HTK03189B", "result": "0.39 ± 0.08", "unit": "%IA/g"}, {"measurement": "Lungs uptake", "setting": "LNCaP tumor-bearing mice; listed as [68Ga]Ga-HTK03189B", "result": "0.82 ± 0.22", "unit": "%IA/g"}, {"measurement": "Muscle uptake", "setting": "LNCaP tumor-bearing mice; listed as [68Ga]Ga-HTK03189B", "result": "0.12 ± 0.03", "unit": "%IA/g"}, {"measurement": "Pancreas uptake", "setting": "LNCaP tumor-bearing mice; listed as [68Ga]Ga-HTK03189B", "result": "0.18 ± 0.05", "unit": "%IA/g"}, {"measurement": "Salivary glands uptake", "setting": "LNCaP tumor-bearing mice; listed as [68Ga]Ga-HTK03189B", "result": "0.22 ± 0.04", "unit": "%IA/g"}, {"measurement": "Spleen uptake", "setting": "LNCaP tumor-bearing mice; listed as [68Ga]Ga-HTK03189B", "result": "0.20 ± 0.05", "unit": "%IA/g"}, {"measurement": "Stomach uptake", "setting": "LNCaP tumor-bearing mice; listed as [68Ga]Ga-HTK03189B", "result": "0.11 ± 0.03", "unit": "%IA/g"}, {"measurement": "Testes uptake", "setting": "LNCaP tumor-bearing mice; listed as [68Ga]Ga-HTK03189B", "result": "0.26 ± 0.05", "unit": "%IA/g"}, {"measurement": "Thyroid uptake", "setting": "LNCaP tumor-bearing mice; listed as [68Ga]Ga-HTK03189B", "result": "0.29 ± 0.08", "unit": "%IA/g"}, {"measurement": "Tumor uptake", "setting": "LNCaP tumor-bearing mice; listed as [68Ga]Ga-HTK03189B", "result": "0.67 ± 0.15", "unit": "%IA/g"}, {"measurement": "Tumor:Blood uptake ratio", "setting": "LNCaP tumor-bearing mice; listed as [68Ga]Ga-HTK03189B", "result": "0.65 ± 0.15"}, {"measurement": "Tumor:Kidney uptake ratio", "setting": "LNCaP tumor-bearing mice; listed as [68Ga]Ga-HTK03189B", "result": "0.32 ± 0.05"}, {"measurement": "Tumor:Muscle uptake ratio", "setting": "LNCaP tumor-bearing mice; listed as [68Ga]Ga-HTK03189B", "result": "5.68 ± 1.12"}, {"measurement": "Tumor:Salivary gland uptake ratio", "setting": "LNCaP tumor-bearing mice; listed as [68Ga]Ga-HTK03189B", "result": "3.08 ± 0.53"}]}, {"smiles": "O=C([O-])CN1CCN(CC(=O)[O-])CCN(CC(=O)NCC2CCC(C(=O)NC(Cc3c4ccccc4cc4ccccc34)C(=O)NCCCCC(NC(=O)NC(CCCC(=O)O)C(=O)O)C(=O)O)CC2)CCN(CC(=O)[O-])CC1.[Ga+3]", "note": "(centres unmarked) [Ga-HTK03149]", "values": [{"measurement": "Ki", "setting": "PSMA", "result": "6.99 ± 0.8", "unit": "nM"}]}]}
